Assay results from ChEMBL document CHEMBL4428084, “Discovery and Optimization of N-(4-(3-Aminophenyl)thiazol-2-yl)acetamide as a Novel Scaffold Active against Sensitive and Resistant Cancer Cells” (J Med Chem, 2016).

Legend:
A-375 [1] = test: Cytotoxicity against vemurafenib-sensitive human A375 cells assessed as cell viability at 10 uM after 48 hrs by trypan blue exclusion assay relative to control; type: functional; details: A-375, 48 h, read-out: Activity
BXPC-3 [2] = test: Cytotoxicity against gemcitabine-sensitive human BxPC3 cells assessed as cell viability at 0.1 uM after 48 hrs by trypan blue exclusion assay relative to control; type: functional; details: BXPC-3, 48 h, read-out: Activity
MIA PaCa-2 [3] = test: Cytotoxicity against gemcitabine-resistant human MIAPaCa2 cells assessed as cell viability at 0.1 uM after 48 hrs by trypan blue exclusion assay relative to control; type: functional; details: MIA PaCa-2, 48 h, read-out: Activity
[4] = Cytotoxicity against vemurafenib-resistant human A375 R5C3 cells assessed as cell viability at 10 uM after 48 hrs by trypan blue exclusion assay relative to control; type: functional; details: A-375, 48 h, read-out: Activity
[5] = Cytotoxicity against vemurafenib-resistant human A375 RIV cells assessed as cell viability at 10 uM after 48 hrs by trypan blue exclusion assay relative to control; type: functional; details: A-375, 48 h, read-out: Activity
K562 [6] = test: Cytotoxicity against imatinib-sensitive human K562 cells assessed as cell viability at 10 uM after 48 hrs by trypan blue exclusion assay relative to control; type: functional; details: K562, 48 h, read-out: Activity
K562 [7] = test: Cytotoxicity against imatinib-resistant human K562 cells assessed as cell viability at 10 uM after 48 hrs by trypan blue exclusion assay relative to control; type: functional; details: K562, 48 h, read-out: Activity
BXPC-3 [8] = test: Cytotoxicity against gemcitabine-sensitive human BxPC3 cells assessed as cell viability at 10 uM after 48 hrs by trypan blue exclusion assay relative to control; type: functional; details: BXPC-3, 48 h, read-out: Activity
MIA PaCa-2 [9] = test: Cytotoxicity against gemcitabine-resistant human MIAPaCa2 cells assessed as cell viability at 10 uM after 48 hrs by trypan blue exclusion assay relative to control; type: functional; details: MIA PaCa-2, 48 h, read-out: Activity
K562 [10] = test: Cytotoxicity against imatinib-sensitive human K562 cells assessed as cell viability at 1 uM after 48 hrs by trypan blue exclusion assay relative to control; details: K562, 48 h, read-out: Activity
K562 [11] = test: Cytotoxicity against imatinib-resistant human K562 cells assessed as cell viability at 1 uM after 48 hrs by trypan blue exclusion assay relative to control; details: K562, 48 h, read-out: Activity
A-375 [12] = test: Cytotoxicity against vemurafenib-sensitive human A375 cells assessed as cell viability at 5 uM after 48 hrs by trypan blue exclusion assay relative to control; type: functional; details: A-375, 48 h, read-out: Activity
[13] = Cytotoxicity against vemurafenib-resistant human A375 R5C3 cells assessed as cell viability at 5 uM after 48 hrs by trypan blue exclusion assay relative to control; type: functional; details: A-375, 48 h, read-out: Activity
[14] = Cytotoxicity against vemurafenib-resistant human A375 RIV cells assessed as cell viability at 5 uM after 48 hrs by trypan blue exclusion assay relative to control; type: functional; details: A-375, 48 h, read-out: Activity
[15] = Cytotoxicity against vemurafenib-resistant human A375 RIV cells assessed as cell viability at 1 uM after 48 hrs by trypan blue exclusion assay relative to control; type: functional; details: A-375, 48 h, read-out: Activity
A-375 [16] = test: Induction of apoptosis in human A375 cells assessed as cells with active caspase-3 at 1 uM after 12 hrs by flow cytometry (reference value: 4.16%); type: functional

Compound `CC(=O)Nc1nc(-c2cccc(NS(=O)(=O)c3ccc(C)s3)c2)cs1` has a viability at 10 µM (A-375 [1]) of 37.5%.
For `Nc1ccn([C@@H]2O[C@H](CO)[C@@H](O)C2(F)F)c(=O)n1` [GEMCITABINE], the viability at 0.1 µM (BXPC-3 [2]) was 2% and the viability at 0.1 µM (MIA PaCa-2 [3]) was 86.5%.
Work on `CC(=O)Nc1nc(-c2cccc(N)c2)cs1` yielded a viability at 10 µM (A-375 [1]) of 38.4%.
In the case of `CCCCc1ccc(S(=O)(=O)Nc2cccc(-c3csc(NC(C)=O)n3)c2)cc1`, the viability at 10 µM (A-375 [1]) is reported as 2.2%, the viability at 10 µM [4] is reported as 9.9% and the viability at 10 µM [5] is reported as 26.7%. For the same compound, the viability at 10 µM (K562 [6]) was 51.6%, the viability at 10 µM (K562 [7]) was 60.9% and the viability at 10 µM (BXPC-3 [8]) was 4.3%. For the same compound, the viability at 10 µM (MIA PaCa-2 [9]) was less than 1%.
Work on `Cc1ccc(NC(=O)c2ccc(CN3CCN(C)CC3)cc2)cc1Nc1nccc(-c2cccnc2)n1` [IMATINIB] yielded a viability at 1 µM (K562 [10]) of 9.7% and a viability at 1 µM (K562 [11]) of 85.5%.
With `CC(=O)Nc1nc(-c2cccc(NS(=O)(=O)c3ccc(I)cc3)c2)cs1` the viability at 10 µM (A-375 [1]) was less than 1%, the viability at 10 µM [4] was 8.4% and the viability at 10 µM [5] was 10%. The viability at 10 µM (K562 [6]) was 15%, the viability at 10 µM (K562 [7]) was 27% and the viability at 10 µM (BXPC-3 [8]) was less than 1%. For the same compound, the viability at 10 µM (MIA PaCa-2 [9]) was 15.8%.
`CC(=O)Nc1nc(-c2cccc(NS(=O)(=O)c3cccc4cccnc34)c2)cs1` showed a viability at 10 µM (A-375 [1]) of 59.5%.
`CC(=O)Nc1nc(-c2cccc(NS(=O)(=O)c3cccc4c3ccn4C)c2)cs1` showed a viability at 10 µM (A-375 [1]) of 60.7%.
For `CC(=O)Nc1nc(-c2cccc(NC(=O)c3ccc4ccccc4c3)c2)cs1`, the viability at 10 µM (A-375 [1]) was 18.3%, the viability at 10 µM [4] was 63.8% and the viability at 10 µM [5] was 30%. It also gave a viability at 10 µM (K562 [6]) of 53.9%, a viability at 10 µM (K562 [7]) of 89.7% and a viability at 10 µM (BXPC-3 [8]) of 1.5%. It also gave a viability at 10 µM (MIA PaCa-2 [9]) of 7%.
Compound `CC(=O)Nc1nc(-c2cccc(NS(=O)(=O)c3cc4ccccc4s3)c2)cs1` has a viability at 10 µM (A-375 [1]) of 29.2%.
`CCCCC#Cc1ccc(S(=O)(=O)Nc2cccc(-c3csc(NC(C)=O)n3)c2)cc1` showed a viability at 10 µM (A-375 [1]) of less than 1%, a viability at 10 µM [4] of 7.8% and a viability at 10 µM [5] of 10%. It also gave a viability at 10 µM (K562 [6]) of 26.9%, a viability at 10 µM (K562 [7]) of 35.1% and a viability at 10 µM (BXPC-3 [8]) of less than 1%. The viability at 10 µM (MIA PaCa-2 [9]) was less than 1%.
`CC(=O)Nc1nc(-c2cccc(NS(=O)(=O)c3ccc(-c4ccccc4)cc3)c2)cs1` gave a viability at 10 µM (A-375 [1]) of 33.9%.
With `CCCS(=O)(=O)Nc1ccc(F)c(C(=O)c2c[nH]c3ncc(-c4ccc(Cl)cc4)cc23)c1F` [VEMURAFENIB] the viability at 5 µM (A-375 [12]) was 44%, the viability at 5 µM [13] was 101% and the viability at 5 µM [14] was 76.7%.
`CC(=O)Nc1nc(-c2cccc(NS(=O)(=O)c3ccc4c(c3)CCC4)c2)cs1` gave a viability at 10 µM (A-375 [1]) of 26.3%.
`CC(=O)Nc1nc(-c2cccc(NS(=O)(=O)c3ccc(C(C)(C)C)cc3)c2)cs1` gave a viability at 10 µM (A-375 [1]) of 1.5%, a viability at 10 µM [4] of 51.1% and a viability at 10 µM [5] of less than 1%. It also gave a viability at 1 µM [15] of 39.4%, a viability at 10 µM (K562 [6]) of 19.4% and a viability at 10 µM (K562 [7]) of 35.1%. The viability at 10 µM (BXPC-3 [8]) was less than 1% and the viability at 10 µM (MIA PaCa-2 [9]) was less than 1%.
Work on `CC(=O)Nc1nc(-c2cccc(NS(=O)(=O)c3cccc4ccccc34)c2)cs1` yielded a viability at 10 µM (A-375 [1]) of 20.4%.
With `CC(=O)Nc1nc(-c2cccc(NS(=O)(=O)c3cccc(C)c3)c2)cs1` the viability at 10 µM (A-375 [1]) was 51.2%.
In the case of `CCCCCCCC(=O)Nc1cccc(-c2csc(NC(C)=O)n2)c1`, the viability at 10 µM (A-375 [1]) is reported as 40%.
In the case of `CC(=O)Nc1nc(-c2cccc(NS(=O)(=O)c3ccc4c(c3)OCCO4)c2)cs1`, the viability at 10 µM (A-375 [1]) is reported as 29.6%.
In the case of `CC(=O)Nc1nc(-c2cccc(NS(=O)(=O)c3c[nH]cn3)c2)cs1`, the viability at 10 µM (A-375 [1]) is reported as 45.7%.
`CC(=O)Nc1nc(-c2cccc(NS(=O)(=O)c3ccc(C)cc3)c2)cs1` showed a viability at 10 µM (A-375 [1]) of 19.8%, a viability at 10 µM [4] of 75.9% and a viability at 10 µM [5] of 53.3%. The viability at 10 µM (K562 [6]) was 15.3%, the viability at 10 µM (K562 [7]) was 38.5% and the viability at 10 µM (BXPC-3 [8]) was 21.6%. For the same compound, the viability at 10 µM (MIA PaCa-2 [9]) was 49.1%.
`CC(=O)Nc1nc(-c2cccc(NS(=O)(=O)c3ccc(-c4ccc(C)cc4)cc3)c2)cs1` showed a viability at 10 µM (A-375 [1]) of 26.3%.
For `CC(=O)Nc1nc(-c2cccc(NS(=O)(=O)c3ccc4oc(=O)ccc4c3)c2)cs1`, the viability at 10 µM (A-375 [1]) was 65.5%.
Compound `CC(=O)Nc1nc(-c2cccc(NS(=O)(=O)c3cn(C)cn3)c2)cs1` has a viability at 10 µM (A-375 [1]) of 36.8%.
Compound `CC(=O)Nc1nc(-c2cccc([N+](=O)[O-])c2)cs1` has a viability at 10 µM (A-375 [1]) of 47.3%.
Compound `CCCCCc1ccc(S(=O)(=O)Nc2cccc(-c3csc(NC(C)=O)n3)c2)cc1` has a viability at 10 µM (A-375 [1]) of 2.8%, a viability at 10 µM [4] of 15.6% and a viability at 10 µM [5] of less than 1%. It also gave a viability at 1 µM [15] of 27.7%, a viability at 10 µM (K562 [6]) of 51% and a viability at 10 µM (K562 [7]) of 72.7%. The viability at 10 µM (BXPC-3 [8]) was less than 1% and the viability at 10 µM (MIA PaCa-2 [9]) was less than 1%.
For `CC(=O)Nc1nc(-c2cccc(NS(=O)(=O)c3ccc4ccccc4c3)c2)cs1`, the viability at 10 µM (A-375 [1]) was 3.3%, the viability at 10 µM [4] was 49.6% and the viability at 10 µM [5] was 33.3%. It also gave a viability at 10 µM (K562 [6]) of 31%, a viability at 10 µM (K562 [7]) of 25.6% and a viability at 10 µM (BXPC-3 [8]) of 0.6%. It also gave a viability at 10 µM (MIA PaCa-2 [9]) of 7%.
With `CC(=O)Nc1nc(-c2cccc(NS(=O)(=O)c3ccccc3)c2)cs1` the viability at 10 µM (A-375 [1]) was 72.2%.
Compound `CC(=O)Nc1nc(-c2cccc(NC(=O)c3ccco3)c2)cs1` has a viability at 10 µM (A-375 [1]) of 29.2%.
Work on `CC(=O)Nc1nc(-c2cccc(NS(=O)(=O)c3ccc4c(ccn4C)c3)c2)cs1` yielded a viability at 10 µM (A-375 [1]) of 46.5%.
In the case of `CC(=O)Nc1nc(-c2cccc(NS(=O)(=O)c3sc(C)nc3C)c2)cs1`, the viability at 10 µM (A-375 [1]) is reported as 29.2%.
For `CN[C@@H]1C[C@H]2O[C@@](C)([C@@H]1OC)n1c3ccccc3c3c4c(c5c6ccccc6n2c5c31)C(=O)NC4` [STAUROSPORINE], the Activity (A-375 [16]) was 46.95%.
Work on `CCc1ccc(S(=O)(=O)Nc2cccc(-c3csc(NC(C)=O)n3)c2)cc1` yielded a viability at 10 µM (A-375 [1]) of 7.5%, a viability at 10 µM [4] of 80.1% and a viability at 10 µM [5] of 26.7%. The viability at 10 µM (K562 [6]) was 12.8%, the viability at 10 µM (K562 [7]) was 27% and the viability at 10 µM (BXPC-3 [8]) was 21%. For the same compound, the viability at 10 µM (MIA PaCa-2 [9]) was 40.7%.
`CC(=O)Nc1nc(-c2cccc(NS(=O)(=O)c3cccs3)c2)cs1` gave a viability at 10 µM (A-375 [1]) of 29.6%.
